This is an account of results in ChEMBL document CHEMBL1146787, “Novel nonpeptidic inhibitors of HIV-1 protease obtained via a new multicomponent chemistry strategy” (Bioorg Med Chem Lett, 2004).

Assay [1] concerns the target T1, Human immunodeficiency virus type 1 protease (Human immunodeficiency virus 1, UniProt Q72874). Description: Inhibitory concentration against Protease.
Assay [2] addresses T1, Human immunodeficiency virus type 1 protease. Description: Evaluated for inhibition of Protease from the crude plate mixture.
The target is the same in assay [3]. Description: Evaluated for inhibition of Protease after resynthesis and purification.
Assay [4] shares this target. Description: Evaluated for inhibition of Protease after CLND/MS correction from the crude mixture.

Bounds are passed on as bounds.

In turn, `CC(C)=CCCC(C)C1=C(O)C(C)(C(=O)NC(C)(C)C)OC1=O` (configuration not stated) had an IC50 in assay [1] of 151 µM. In assay [1], `CC(C)(C)NC(=O)C1(CCc2ccccc2)OC(O)=C(c2c[nH]c3ccccc23)C1=O` (configuration not stated) gave an IC50 of 107 µM. Take `CNC1=C(O)C(CCc2ccccc2)(C(=O)NCC2CCCO2)OC1=O` (configuration not stated): the IC50 in assay [1] was > 1000 µM.

`COc1cc(CC2=C(O)C(C)(C(=O)NC3CC3)OC2=O)cc(OC)c1OC` (configuration not stated): the IC50 in assay [1] is > 1000 µM. Regarding `CC(C)=CCCC(C)C1=C(O)C(CCc2ccccc2)(C(=O)NC(C)(C)C)OC1=O` (configuration not stated), the IC50 in assay [2] worked out at 15 µM; in assay [3] it was 1.3 µM; in assay [4] it was 1.3 µM; in assay [1], 1 µM. On to `COc1cc(CC2=C(O)C(CCc3ccccc3)(C(=O)NCC(C)(C)C)OC2=O)cc(OC)c1OC` (configuration not stated), for which the IC50 in assay [1] was > 1000 µM. Compound `C[C@H](C1=C(O)[C@@](CCc2ccccc2)(C(=O)NCc2ccc(C(C)(C)C)cc2)OC1=O)c1ccccc1` had an IC50 in assay [3] of 5.4 µM. Turning to `CCCCNC(=O)C1(C)OC(O)=C(CCc2ccccc2)C1=O` (configuration not stated), the IC50 in assay [1] was > 100 µM.

On to `COc1cc(CC2=C(O)C(C)(C(=O)NC(C)(C)C)OC2=O)cc(OC)c1OC` (configuration not stated), for which the IC50 in assay [1] was > 1000 µM.

The compound `CN(C(=O)OC(C)(C)C)C1=C(O)C(CCc2ccccc2)(C(=O)NC(C)(C)C)OC1=O` (configuration not stated) returned an IC50 in assay [1] of 47 µM.

As for `CC(C1=C(O)C(CCc2ccccc2)(C(=O)NC(C)(C)C)OC1=O)c1ccccc1` (configuration not stated), the IC50 in assay [2] is 6 µM; in assay [3] it was 2 µM; in assay [4], 4.1 µM; in assay [1], 4 µM. Turning to `CNC(=O)C1(C)OC(O)=C(C(C)c2ccccc2)C1=O` (configuration not stated), inhibition in assay [1] was half-maximal at 244 µM (IC50). On the same count and under the same terms, for `CC(C)(C)NC(=O)C1(CCc2ccccc2)OC(O)=C(CCc2ccccc2)C1=O` (configuration not stated) the value was 3 µM; for `CC(C)(C)NC(=O)C1(C)OC(O)=C(CCc2ccccc2)C1=O` (configuration not stated), 70 µM. Consider `C[C@H](C1=C(O)C(CCc2ccccc2)(C(=O)NCc2ccc(C(C)(C)C)cc2)OC1=O)c1ccccc1` (single isomer, unassigned), for which the IC50 in assay [3] is 4.6 µM; in assay [4], 1.2 µM; in assay [1], 84 µM. Consider `COCCNC(=O)C1(C)OC(O)=C(C(C)c2ccccc2)C1=O` (configuration not stated), for which, in assay [1], the IC50 stood at 224 µM. Still for that read-out and setting: the figure for `CC(C1=C(O)OC(C(=O)NCCc2ccc(Cl)cc2)(C(C)C)C1=O)c1ccccc1` (configuration not stated) is 31 µM. On the same count and under the same terms, for `CC(C)(C)NC(=O)C1(CCc2ccccc2)OC(O)=C(Cc2ccccc2)C1=O` (configuration not stated) the value was 11 µM; for `CC(C)(C)NC(=O)C1(CCc2ccccc2)OC(O)=C(c2ccc(C(C)(C)C)cc2)C1=O` (configuration not stated), 17 µM; for `CC1(C(=O)NC2CC2)OC(O)=C(CCc2ccccc2)C1=O` (configuration not stated), 294 µM. Still for that read-out and setting: for `CC(C1=C(O)[C@@](CCc2ccccc2)(C(=O)NCc2ccc(C(C)(C)C)cc2)OC1=O)c1ccccc1` (some centres not stated) the value was 5 µM. In assay [1], `CC(C)(C)NC(=O)C1(CCc2ccccc2)OC(O)=C(c2ccc(-c3ccccc3)cc2)C1=O` (configuration not stated) had an IC50 of 27 µM.

The compound `CC(C1=C(O)C(C)(C(=O)NC(C)(C)C)OC1=O)c1ccccc1` (configuration not stated) registered an IC50 in assay [1] of 105 µM. Still for that read-out and setting: for `CN(C(=O)OC(C)(C)C)C1=C(O)C(CCc2ccccc2)(C(=O)NCC2CCCO2)OC1=O` (configuration not stated) the value was 193 µM.
